Our source for the Kd, DC50 and IC50 values is patent publication US20250115598A1 (Anaxis Pharma Pty Ltd, priority 2021, published 2025).

One test addresses human MLKL (full length) (Homo sapiens (Human), UniProt Q8NB16). The test can be described thus: KINOMEscan binding assay, human MLKL (full length). To be noted: hMLKL, Table 25; read-out: MLKL (KD). A digest of the protocol: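 In this assay, compounds displace DNA- or phage-tagged kinase from an immobilized ligand, and eluted kinase is quantified by qPCR.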
For the next test, the target named is endogenous MLKL in U937 (Homo sapiens (Human), UniProt Q8NB16). The test can be described thus: Degradation assay: endogenous MLKL in U937 (western blot). To be noted: U937, 24 h incubation, read-out: Degradation of endogenous MLKL in U937 (DC50 cell-based assay). The method, then:
Degradation Assay: Screening Compounds Procedure to Evaluate the Activity of Compounds in Degrading Endogenous MLKL in Human and Mouse Cell
The mouse dermal fibroblast (MDF) cell line was seeded the day before the experiment in a 24-well plate at a cell density of […] per well in a volume of 0.5 mL per well and left to attach overnight. The human monocyte cell line (U937) was seeded on the day of the experiment in a 24-well plate at a cell density of […] per well in a volume of 0.5 mL per well.
The compound was diluted in DMSO with a starting concentration of 10 mM and titrated stepwise with a dilution of 1:5. 0.5 μL of the compound dilution was added to the appropriate well to achieve a final concentration of 10; 2; 0.4; 0.08 and 0.016 μM. A DMSO only well was included as control.
The cells were incubated for 24 h in the presence of the compound at 37° C. and 10% CO2.
After the 24 h incubation period, the medium was removed and cells washed with 0.5 mL PBS. The cells were then lysed directly in 60 μL of 1×SDS gel loading buffer.
The cell lysate was heat-denatured at […] for 10 min. 10 μL of lysate per well were run on 18-well 4-15% Criterion TGX stain free gels (BIO-RAD). The proteins were then transferred onto nitrocellulose membrane with a wet transfer protocol in the Criterion Blotter (BIO-RAD).
Membranes were blocked with 5% skim milk in TBST. Primary antibody against MLKL (clone 3H1, MABC604 Merck) was used at 1:2000 dilution in TBST with 1% BSA and left shaking over night at 4° C. After washes with TBST, the membranes were incubated with goat anti-rat IgG HRP-conjugated antibody (Southern Biotech) in 1% skim milk TBST at 1:10000 dilution for 1 h at room temperature. After TBST washes the bands were imaged on the ChemiDoc MP Imaging System (BIO-RAD) with Immobilion Western Chemiluminescent HRP Substrate Forte (Millipore). The loading control GAPDH was probed for with rabbit anti-GAPDH (CST 14C10) at 1:2000 dilution in 1% BSA TBST over night at 4° C. TBST washes were followed by incubation with goat anti-rabbit IgG HRP-conjugated antibody (Southern Biotech) in 1% skim milk TBST at 1:10000 dilution for 1 h at room temperature followed by TBST washes. The signal was detected as described above.
The band intensity was measured in the ImageLab Software (BIO-RAD) and the MLKL values adjusted for loading with GAPDH. The percentage of degradation was calculated by normalizing the compound treated values to the DMSO only control.

The next test deals with endogenous MLKL in MDF (Mus musculus (Mouse), UniProt Q9D2Y4). The test can be described thus: Degradation assay: endogenous MLKL in MDF (western blot). To be noted: MDF cells, 24 h incubation with compound, MLKL adjusted for loading with GAPDH, normalized to DMSO only control, read-out: Degradation of endogenous MLKL in MDF (DC50 cell-based assay). In short, it runs like this:
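Western blot band intensity of MLKL, adjusted to GAPDH loading and normalized to DMSO-only wells, gave percent degradation. Compound exposure lasted 24 h at final concentrations of 10–0.016 μM in 1:5 steps, in mouse dermal fibroblasts or human U937 cells.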
(In western blotting, separated proteins are transferred to a membrane and probed.)

Test [1] deals with Immortalised Mouse Dermal Fibroblasts (MDFs). Description: Cellular assay: inhibition of TSI induced necroptosis, CellTitre-Glo viability. To be noted: Mus musculus, Fibroblast; MDF, 3 hours TSI cocktail, Table 27; read-out: Inhibition of TSI-induced necroptosis (IC50 cell-based assay) in MDF. A digest of the protocol:
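Necroptosis induced for 3 h with TSI: rhTNF 100 ng/ml, Smac mimetic 500 nM, caspase inhibitor IDN-6556 10 μM. Mouse dermal fibroblasts had received compound (36 μM top, ten three-fold steps) 30 min beforehand. ATP-based viability scaled between untreated and TSI-only wells; IC50 taken as 4-parameter curve inflection.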

Sequence of human MLKL (full length) (Q8NB16 whole entry): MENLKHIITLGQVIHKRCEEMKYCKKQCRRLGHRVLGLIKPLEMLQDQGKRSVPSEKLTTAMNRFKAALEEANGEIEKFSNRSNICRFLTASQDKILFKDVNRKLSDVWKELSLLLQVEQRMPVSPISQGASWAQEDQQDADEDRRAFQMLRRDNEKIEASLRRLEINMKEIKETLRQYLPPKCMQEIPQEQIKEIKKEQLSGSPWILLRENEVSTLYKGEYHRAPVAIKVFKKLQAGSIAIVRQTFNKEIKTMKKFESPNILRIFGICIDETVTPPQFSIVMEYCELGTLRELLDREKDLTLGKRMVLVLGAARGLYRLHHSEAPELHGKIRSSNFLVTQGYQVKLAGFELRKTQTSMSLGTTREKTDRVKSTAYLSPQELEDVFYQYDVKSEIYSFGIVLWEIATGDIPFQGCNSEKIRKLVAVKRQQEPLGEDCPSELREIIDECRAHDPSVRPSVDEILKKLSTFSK
Sequence of endogenous MLKL in U937 (Q8NB16 whole entry): as above
Sequence of endogenous MLKL in MDF (Q9D2Y4 whole entry): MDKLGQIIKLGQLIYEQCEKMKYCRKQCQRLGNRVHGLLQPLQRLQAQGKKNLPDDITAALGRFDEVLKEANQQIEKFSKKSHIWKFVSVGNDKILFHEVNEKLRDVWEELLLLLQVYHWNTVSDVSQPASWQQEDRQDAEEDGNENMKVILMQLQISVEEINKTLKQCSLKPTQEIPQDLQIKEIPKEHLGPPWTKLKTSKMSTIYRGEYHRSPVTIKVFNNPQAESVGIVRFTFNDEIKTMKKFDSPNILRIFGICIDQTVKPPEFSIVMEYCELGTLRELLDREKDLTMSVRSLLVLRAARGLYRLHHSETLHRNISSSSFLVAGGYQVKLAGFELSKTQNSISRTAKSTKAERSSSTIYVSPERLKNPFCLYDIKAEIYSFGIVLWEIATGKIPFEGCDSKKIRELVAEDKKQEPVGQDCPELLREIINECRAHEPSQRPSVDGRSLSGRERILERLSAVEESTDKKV

Consider `Cc1ncsc1-c1ccc(CNC(=O)[C@@H]2C[C@@H](O)CN2C(=O)[C@@H](NC(=O)CCOCCCn2cc(-c3cnc(N)c4c(-c5ccc(NS(=O)(=O)C(F)F)c(O[C@@H](C)c6ccc(F)cc6)c5)nn(C)c34)cn2)C(C)(C)C)cc1` [Compound 1040, (2S,4R)-1-[(2S)-2-{3-[3-(4-{4-amino-3-[4-(difluoromethanesulfonamido)-3-[(1S)-1-(4-fluorophenyl)ethoxy]phenyl]-1-methyl-1H-pyrazolo[4,3-c]pyridin-7-yl}-1H-pyrazol-1-yl)propoxy]propanamido}-3,3-dimethylbutanoyl]-4-hydroxy-N-{[4-(4-methyl-1,3-thiazol-5-yl)phenyl]methyl}pyrrolidine-2-carboxamide], for which the Kd (commonly the constant that tells how readily two partners part at equilibrium) at human MLKL (full length) was below 0.01 µM. The half-maximal degradation concentration (DC50) (commonly the concentration giving 50% degradation) on endogenous MLKL in U937 is 1 to 10 µM.
With `Cc1ncsc1-c1ccc(CNC(=O)[C@@H]2C[C@@H](O)CN2C(=O)[C@@H](NC(=O)C2(F)CC2)C(C)(C)C)c(OCCCCCCCCCn2cc(-c3cnc(N)c4c(-c5ccc(NS(=O)(=O)C(F)F)c(O[C@@H](C)c6ccc(F)cc6)c5)nn(C)c34)cn2)c1` [Compound 1041, (2S,4R)-N-[(2-{[9-(4-{4-amino-3-[4-(difluoromethanesulfonamido)-3-[(1S)-1-(4-fluorophenyl)ethoxy]phenyl]-1-methyl-1H-pyrazolo[4,3-c]pyridin-7-yl}-1H-pyrazol-1-yl)nonyl]oxy}-4-(4-methyl-1,3-thiazol-5-yl)phenyl)methyl]-1-[(2S)-2-[(1-fluorocyclopropyl)formamido]-3,3-dimethylbutanoyl]-4-hydroxypyrrolidine-2-carboxamide], the Kd at human MLKL (full length) was in the range of 0.01 to 1 µM. The results for the 50% degradation concentration (DC50) at endogenous MLKL in U937 and at endogenous MLKL in MDF were 1 to 10 µM and below 1 µM, respectively.
Taken in the same sequence, the figures for `Cc1ncsc1-c1ccc(CNC(=O)[C@@H]2C[C@@H](O)CN2C(=O)[C@@H](NC(=O)CCCCCOc2ccc(-c3cnc(N)c4c(-c5ccc(NS(=O)(=O)C(F)F)c(O[C@@H](C)c6ccc(F)cc6)c5)nn(C)c34)cn2)C(C)(C)C)cc1` [Compound 1050, (2S,4R)-1-[(2S)-2-{6-[(5-{4-amino-3-[4-(difluoromethanesulfonamido)-3-[(1S)-1-(4-fluorophenyl)ethoxy]phenyl]-1-methyl-1H-pyrazolo[4,3-c]pyridin-7-yl}pyridin-2-yl)oxy]hexanamido}-3,3-dimethylbutanoyl]-4-hydroxy-N-{[4-(4-methyl-1,3-thiazol-5-yl)phenyl]methyl}pyrrolidine-2-carboxamide] were 0.01 to 1 µM, below 1 µM and 1 to 10 µM.
In the case of `Cc1ncsc1-c1ccc(CNC(=O)[C@@H]2C[C@@H](O)CN2C(=O)[C@@H](NC(=O)CCCCCCC#Cc2cnc(N)c3c(-c4ccc(NS(=O)(=O)C(F)F)c(F)c4)nn(C)c23)C(C)(C)C)cc1` [Compound 1052, (2S,4R)-1-[(2S)-2-(9-{4-amino-3-[4-(difluoromethanesulfonamido)-3-fluorophenyl]-1-methyl-1H-pyrazolo[4,3-c]pyridin-7-yl}non-8-ynamido)-3,3-dimethylbutanoyl]-4-hydroxy-N-{[4-(4-methyl-1,3-thiazol-5-yl)phenyl]methyl}pyrrolidine-2-carboxamide], the equilibrium dissociation constant (Kd) on human MLKL (full length) lay in the range of 0.01 to 1 µM. Besides, on endogenous MLKL in U937, the 50% degradation concentration (DC50) fell in the range of 1 to 10 µM.
Turning to `Cc1ncsc1-c1ccc(CNC(=O)[C@@H]2C[C@@H](O)CN2C(=O)[C@@H](NC(=O)COCCOCC#Cc2cnc(N)c3c(-c4ccc(NS(=O)(=O)C(F)F)c(O[C@@H](C)c5ccc(F)cc5)c4)nn(C)c23)C(C)(C)C)cc1` [Compound 1075, (2S,4R)-1-[(2S)-2-(2-{2-[(3-{4-amino-3-[4-(difluoromethanesulfonamido)-3-[(1S)-1-(4-fluorophenyl)ethoxy]phenyl]-1-methyl-1H-pyrazolo[4,3-c]pyridin-7-yl}prop-2-yn-1-yl)oxy]ethoxy}acetamido)-3,3-dimethylbutanoyl]-4-hydroxy-N-{[4-(4-methyl-1,3-thiazol-5-yl)phenyl]methyl}pyrrolidine-2-carboxamide], the Kd on human MLKL (full length) is below 0.01 µM. At endogenous MLKL in U937, the DC50 is below 1 µM.
For `C[C@H](Oc1cc(-c2nn(C)c3c(-c4cnn(C5CCN(C(=O)C6CCCN(c7cccc8c7C(=O)N(C7CCC(=O)NC7=O)C8=O)C6)CC5)c4)cnc(N)c23)ccc1NS(=O)(=O)C(F)F)c1ccc(F)cc1` (stereo partly drawn) [Compound 1077, N-(4-{4-amino-7-[1-(1-{1-[2-(2,6-dioxopiperidin-3-yl)-1,3-dioxo-2,3-dihydro-1H-isoindol-4-yl]piperidine-3-carbonyl}piperidin-4-yl)-1H-pyrazol-4-yl]-1-methyl-1H-pyrazolo[4,3-c]pyridin-3-yl}-2-[(1S)-1-(4-fluorophenyl)ethoxy]phenyl)-1,1-difluoromethane-sulfonamide], the half-inhibitory concentration (IC50) (as a rule, the point on the concentration scale where inhibition reaches its midpoint) in test [1] fell in the range of 1 to 10 µM. Besides, the 50% degradation concentration (DC50) on endogenous MLKL in U937 is 1 to 10 µM.
On to `C[C@H](Oc1cc(-c2nn(C)c3c(C#CCCCCCCNC(=O)COc4cccc5c4C(=O)N(C4CCC(=O)NC4=O)C5=O)cnc(N)c23)ccc1NS(=O)(=O)C(F)F)c1ccc(F)cc1` (stereo partly drawn) [Compound 1097, N-(8-{4-amino-3-[4-(difluoromethanesulfonamido)-3-[(1S)-1-(4-fluorophenyl)ethoxy]phenyl]-1-methyl-1H-pyrazolo[4,3-c]pyridin-7-yl}oct-7-yn-1-yl)-2-{[2-(2,6-dioxopiperidin-3-yl)-1,3-dioxo-2,3-dihydro-1H-isoindol-4-yl]oxy}acetamide], for which, at human MLKL (full length), the Kd was below 0.01 µM. For the same compound, the DC50 at endogenous MLKL in U937 was below 1 µM.
The like results for `CN[C@@H](C)C(=O)N[C@H](C(=O)N1C[C@H](NC(=O)CCCCCCn2cc(-c3cnc(N)c4c(-c5ccc(NS(=O)(=O)C(F)F)c(O[C@@H](C)c6ccc(F)cc6)c5)nn(C)c34)cn2)C[C@H]1C(=O)Nc1c(F)cccc1F)C(C)(C)C` [Compound 1101, (2S)-4-[7-(4-{4-amino-3-[4-(difluoromethanesulfonamido)-3-[(1S)-1-(4-fluorophenyl)ethoxy]phenyl]-1-methyl-1H-pyrazolo[4,3-c]pyridin-7-yl}-1H-pyrazol-1-yl)heptanamido]-N-(2,6-difluorophenyl)-1-[(2S)-3,3-dimethyl-2-[(2S)-2-(methylamino)propanamido]butanoyl]pyrrolidine-2-carboxamide] were, in that order, below 0.01 µM and below 1 µM.
As to “(2S,4R)-1-[(2S)-2-(9-{4-amino-3-[4-(difluoromethanesulfonamido)-3-fluorophenyl]-1-methyl-1H-pyrazolo[4,3-c]pyridin-7-yl}non-8-ynamido)-3,3-dimethylbutanoyl]-4-hydroxy-N-{[4-(4-methyl-1,3-thiazol-5-yl)phenyl]methyl}pyrrolidine-2-carboxamide [Compound 1046]”, the DC50 at endogenous MLKL in U937 is below 1 µM.
